According to US20230027066A1 (Urovant Sciences GmbH, priority 2019, published 2023):

Experiments:
[1] = ABPM study, in-clinic vital signs; format: in vivo, human; conditions: SAF; for In-clinic vital signs change from baseline ≥5, subjects / In-clinic vital signs change from baseline ≥10, subjects / In-clinic vital signs change from baseline ≥15, subjects: parameter not given (Table 111)
Experimental: Safety was evaluated by assessment of clinical laboratory tests, physical examinations, and vital signs measurements from office visits at various time points during the study, and by the documentation of AEs.
Tables 106, 107, and 108 show the changes to in-clinic measurements of systolic blood pressure, diastolic blood pressure, and heart rate over the treatment period.
For subjects with a body weight of at least about 65.4 kg, there was no difference between treatment and placebo in the number of subjects with a ≥5, ≥10, or ≥15 mm Hg increase in systolic blood pressure. The same was true for subjects over the age of 66.

[2] = QTc study comparison mirabegron and vibegron, BP and HR in healthy subjects; format: in vivo, human; conditions: for HR change at Cmax, placebo adjusted / SBP change 24-hour average, placebo adjusted / SBP change at Cmax, placebo adjusted: healthy subjects
[3] = Baseline to Day 28, subgroup Age <= 75th percentile (66 years)
[4] = Baseline to Day 28, subgroup Age > 75th percentile (66 years)
[5] = Baseline to Day 28, subgroup Body Weight <= 25th Percentile (65.4 kg)
[6] = Baseline to Day 28, subgroup Body Weight > 25th Percentile (65.4 kg)
[7] = Baseline to Day 28, subgroup Pre-existing hypertension: NO
[8] = Baseline to Day 28, subgroup Pre-existing hypertension: YES
[9] = Baseline to Day 28, subgroup eGFR <= 25th Percentile (72 mL/min/1.73 m^2)
[10] = Baseline to Day 28, subgroup eGFR > 25th Percentile (72 mL/min/1.73 m^2)
[11] = Baseline to End of Treatment, subgroup <= 25th percentile BW (65.4 kg)
[12] = Baseline to End of Treatment, subgroup >25th percentile BW (65.4 kg)
[13] = Baseline to End of Treatment, subgroup Age <= 75th percentile (66 years)
[14] = Baseline to End of Treatment, subgroup Age > 75th percentile (66 years)
[15] = Baseline to End of Treatment, subgroup Pre-existing hypertension: NO
[16] = Baseline to End of Treatment, subgroup Pre-existing hypertension: YES
[17] = Baseline to End of Treatment, subgroup eGFR <= 25th percentile (72 mL/min/1.73 m^2)
[18] = Baseline to End of Treatment, subgroup eGFR > 25th percentile (72 mL/min/1.73 m^2)
[19] = Over 28 Days on 3 Consecutive Visits
[20] = Over 28 Days on 3 Consecutive Visits, subgroup Body Weight <= 25th Percentile (65.4 kg)
[21] = Over 28 Days on 3 Consecutive Visits, subgroup Body Weight > 25th Percentile (65.4 kg)
[22] = Over 28 Days on 3 Consecutive Visits, subgroup eGFR <= 25th Percentile (72 mL/min/1.73 m^2)
[23] = Over 28 Days on 3 Consecutive Visits, subgroup eGFR > 25th Percentile (72 mL/min/1.73 m^2)

In the case of `O=C(Nc1ccc(C[C@@H]2CC[C@H]([C@H](O)c3ccccc3)N2)cc1)[C@@H]1CCc2nccc(=O)n21` [Vibegron, (6S)-N-[4-[[(2S,5R)−5-[(R)-hydroxy(phenyl)methyl]pyrrolidin−2-yl]methyl]phenyl]−4-oxo−7,8-dihydro−6H-pyrrolo[1,2-a]pyrimidine−6-carboxamide], the “In-clinic DBP (mmHg) change from baseline ≥5, subjects” value ([1]; Baseline to Day 28) was 24 (23.3) n (%), the “In-clinic DBP (mmHg) change from baseline ≥10, subjects” value ([1]; Baseline to Day 28) was 9 (8.7) n (%) and the “In-clinic DBP (mmHg) change from baseline ≥15, subjects” value ([1]; Baseline to Day 28) was 2 (1.9) n (%). The “In-clinic HR (bpm) change from baseline ≥5, subjects” value ([1]; Baseline to Day 28) was 24 (23.3) n (%), the “In-clinic HR (bpm) change from baseline ≥10, subjects” value ([1]; Baseline to Day 28) was 8 (7.8) n (%) and the “In-clinic HR (bpm) change from baseline ≥15, subjects” value ([1]; Baseline to Day 28) was 3 (2.9) n (%). The “In-clinic SBP (mmHg) change from baseline ≥5, subjects” value ([1]; Baseline to Day 28) was 33 (32.0) n (%), the “In-clinic SBP (mmHg) change from baseline ≥10, subjects” value ([1]; Baseline to Day 28) was 22 (21.4) n (%) and the “In-clinic SBP (mmHg) change from baseline ≥15, subjects” value ([1]; Baseline to Day 28) was 10 (9.7) n (%). For the same molecule, the “In-clinic SBP change from baseline ≥5, subjects” value [1, 3] was 28 (34.6) n (%), the “In-clinic SBP change from baseline ≥10, subjects” value [1, 3] was 18 (22.2) n (%) and the “In-clinic SBP change from baseline ≥15, subjects” value [1, 3] was 9 (11.1) n (%). The “In-clinic SBP change from baseline ≥5, subjects” value [1, 4] was 5 (22.7) n (%), the “In-clinic SBP change from baseline ≥10, subjects” value [1, 4] was 4 (18.2) n (%) and the “In-clinic SBP change from baseline ≥15, subjects” value [1, 4] was 1 (4.5) n (%). The “In-clinic SBP change from baseline ≥5, subjects” value [1, 5] was 9 (32.1) n (%), the “In-clinic SBP change from baseline ≥10, subjects” value [1, 5] was 6 (21.4) n (%) and the “In-clinic SBP change from baseline ≥15, subjects” value [1, 5] was 2 (7.1) n (%). For the same molecule, the “In-clinic SBP change from baseline ≥5, subjects” value [1, 6] was 24 (32.0) n (%), the “In-clinic SBP change from baseline ≥10, subjects” value [1, 6] was 16 (21.3) n (%) and the “In-clinic SBP change from baseline ≥15, subjects” value [1, 6] was 8 (10.7) n (%). The “In-clinic SBP change from baseline ≥5, subjects” value [1, 7] was 20 (31.3) n (%), the “In-clinic SBP change from baseline ≥10, subjects” value [1, 7] was 13 (20.3) n (%) and the “In-clinic SBP change from baseline ≥15, subjects” value [1, 7] was 6 (9.4) n (%). The “In-clinic SBP change from baseline ≥5, subjects” value [1, 8] was 13 (33.3) n (%), the “In-clinic SBP change from baseline ≥10, subjects” value [1, 8] was 9 (23.1) n (%) and the “In-clinic SBP change from baseline ≥15, subjects” value [1, 8] was 4 (10.3) n (%). For the same molecule, the “In-clinic SBP change from baseline ≥5, subjects” value [1, 9] was 7 (23.3) n (%), the “In-clinic SBP change from baseline ≥10, subjects” value [1, 9] was 4 (13.3) n (%) and the “In-clinic SBP change from baseline ≥15, subjects” value [1, 9] was 1 (3.3) n (%). For the same molecule, the “In-clinic SBP change from baseline ≥5, subjects” value [1, 10] was 26 (35.6) n (%), the “In-clinic SBP change from baseline ≥10, subjects” value [1, 10] was 18 (24.7) n (%) and the “In-clinic SBP change from baseline ≥15, subjects” value [1, 10] was 9 (12.3) n (%). The “In-clinic DBP (mmHg) change from baseline ≥5, subjects” value ([1]; Baseline to End of Treatment) was 31 (29.5) n (%), the “In-clinic DBP (mmHg) change from baseline ≥10, subjects” value ([1]; Baseline to End of Treatment) was 12 (11.4) n (%) and the “In-clinic DBP (mmHg) change from baseline ≥15, subjects” value ([1]; Baseline to End of Treatment) was 7 (6.7) n (%). For the same molecule, the “In-clinic HR (bpm) change from baseline ≥5, subjects” value ([1]; Baseline to End of Treatment) was 37 (35.2) n (%), the “In-clinic HR (bpm) change from baseline ≥10, subjects” value ([1]; Baseline to End of Treatment) was 12 (11.4) n (%) and the “In-clinic HR (bpm) change from baseline ≥15, subjects” value ([1]; Baseline to End of Treatment) was 4 (3.8) n (%). The “In-clinic SBP (mmHg) change from baseline ≥5, subjects” value ([1]; Baseline to End of Treatment) was 36 (34.3) n (%), the “In-clinic SBP (mmHg) change from baseline ≥10, subjects” value ([1]; Baseline to End of Treatment) was 22 (21.0) n (%) and the “In-clinic SBP (mmHg) change from baseline ≥15, subjects” value ([1]; Baseline to End of Treatment) was 13 (12.4) n (%). For the same molecule, the “In-clinic SBP change from baseline ≥5, subjects” value [1, 11] was 13 (43.3) n (%), the “In-clinic SBP change from baseline ≥10, subjects” value [1, 11] was 9 (30.0) n (%) and the “In-clinic SBP change from baseline ≥15, subjects” value [1, 11] was 5 (16.7) n (%). For the same molecule, the “In-clinic SBP change from baseline ≥5, subjects” value [1, 12] was 23 (30.7) n (%), the “In-clinic SBP change from baseline ≥10, subjects” value [1, 12] was 13 (17.3) n (%) and the “In-clinic SBP change from baseline ≥15, subjects” value [1, 12] was 8 (10.7) n (%). The “In-clinic SBP change from baseline ≥5, subjects” value [1, 13] was 29 (34.9) n (%), the “In-clinic SBP change from baseline ≥10, subjects” value [1, 13] was 18 (21.7) n (%) and the “In-clinic SBP change from baseline ≥15, subjects” value [1, 13] was 10 (12.0) n (%). For the same molecule, the “In-clinic SBP change from baseline ≥5, subjects” value [1, 14] was 7 (31.8) n (%), the “In-clinic SBP change from baseline ≥10, subjects” value [1, 14] was 4 (18.2) n (%) and the “In-clinic SBP change from baseline ≥15, subjects” value [1, 14] was 3 (13.6) n (%). The “In-clinic SBP change from baseline ≥5, subjects” value [1, 15] was 22 (33.3) n (%), the “In-clinic SBP change from baseline ≥10, subjects” value [1, 15] was 14 (21.2) n (%) and the “In-clinic SBP change from baseline ≥15, subjects” value [1, 15] was 9 (13.6) n (%). The “In-clinic SBP change from baseline ≥5, subjects” value [1, 16] was 14 (35.9) n (%), the “In-clinic SBP change from baseline ≥10, subjects” value [1, 16] was 8 (20.5) n (%) and the “In-clinic SBP change from baseline ≥15, subjects” value [1, 16] was 4 (10.3) n (%). The “In-clinic SBP change from baseline ≥5, subjects” value [1, 17] was 13 (43.3) n (%), the “In-clinic SBP change from baseline ≥10, subjects” value [1, 17] was 9 (30.0) n (%) and the “In-clinic SBP change from baseline ≥15, subjects” value [1, 17] was 6 (20.0) n (%). For the same molecule, the “In-clinic SBP change from baseline ≥5, subjects” value [1, 18] was 23 (30.7) n (%), the “In-clinic SBP change from baseline ≥10, subjects” value [1, 18] was 13 (17.3) n (%) and the “In-clinic SBP change from baseline ≥15, subjects” value [1, 18] was 7 (9.3) n (%). For the same molecule, the “In-clinic DBP (mmHg) change from baseline ≥5, subjects” value [1, 19] was 5 (5.1) n (%), the “In-clinic DBP (mmHg) change from baseline ≥10, subjects” value [1, 19] was 3 (3.1) n (%) and the “In-clinic DBP (mmHg) change from baseline ≥15, subjects” value [1, 19] was 0 n (%). The “In-clinic HR (bpm) change from baseline ≥5, subjects” value [1, 19] was 6 (6.1) n (%), the “In-clinic HR (bpm) change from baseline ≥10, subjects” value [1, 19] was 3 (3.1) n (%) and the “In-clinic HR (bpm) change from baseline ≥15, subjects” value [1, 19] was 0 n (%). For the same molecule, the “In-clinic SBP (mmHg) change from baseline ≥5, subjects” value [1, 19] was 14 (14.3) n (%), the “In-clinic SBP (mmHg) change from baseline ≥10, subjects” value [1, 19] was 6 (6.1) n (%) and the “In-clinic SBP (mmHg) change from baseline ≥15, subjects” value [1, 19] was 0 n (%). For the same molecule, the “In-clinic vital signs change from baseline ≥5, subjects” value [1, 20] was 6 (23.1) n (%), the “In-clinic vital signs change from baseline ≥10, subjects” value [1, 20] was 2 (7.7) n (%) and the “In-clinic vital signs change from baseline ≥15, subjects” value [1, 20] was 0 n (%). The “In-clinic vital signs change from baseline ≥5, subjects” value [1, 21] was 8 (11.1) n (%), the “In-clinic vital signs change from baseline ≥10, subjects” value [1, 21] was 4 (5.6) n (%) and the “In-clinic vital signs change from baseline ≥15, subjects” value [1, 21] was 0 n (%). The “In-clinic vital signs change from baseline ≥5, subjects” value [1, 22] was 3 (10.7) n (%), the “In-clinic vital signs change from baseline ≥10, subjects” value [1, 22] was 1 (3.6) n (%) and the “In-clinic vital signs change from baseline ≥15, subjects” value [1, 22] was 0 n (%). For the same molecule, the “In-clinic vital signs change from baseline ≥5, subjects” value [1, 23] was 11 (15.7) n (%), the “In-clinic vital signs change from baseline ≥10, subjects” value [1, 23] was 5 (7.1) n (%) and the “In-clinic vital signs change from baseline ≥15, subjects” value [1, 23] was 0 n (%). The “SBP change 24-hour average, 75 mg estimate, placebo adjusted” value ([2]; 75 mg estimate from QT study) was 24-hour average: 0.1 mmHg, the “SBP change at Cmax, 75 mg estimate, placebo adjusted” value ([2]; 75 mg estimate from QT study) was “At Cmax: 0.4 mmHg” and the “HR change at Cmax, placebo adjusted” value ([2]; 200 mg single-dose) was 4.1 BPM. The “SBP change 24-hour average, placebo adjusted” value ([2]; 200 mg single-dose) was “+0.7 mmHg”, the “SBP change at Cmax, placebo adjusted” value ([2]; 200 mg single-dose) was “+2.2 mmHg” and the “HR change at Cmax, placebo adjusted” value ([2]; 400 mg single-dose) was 11.2 BPM. For the same molecule, the “SBP change 24-hour average, placebo adjusted” value ([2]; 400 mg single-dose) was 1.3 mmHg and the “SBP change at Cmax, placebo adjusted” value ([2]; 400 mg single-dose) was “+3.97 mmHg”.
